Data reported in ChEMBL document CHEMBL6114969, “Ultra-short lipopeptides containing d-amino acid exhibiting excellent stability and antibacterial activity against gram-positive bacteria” (Eur J Med Chem, 2025).
In brackets after ≈: the same amount, converted by molar mass.

Experiments:
Enterococcus faecalis = assay: Antibacterial activity against Enterococcus faecalis ATCC 29212 incubated for 18 to 24 hrs by broth microdilution method; type: functional; conditions: time 18-24 hrs
Staphylococcus aureus [1] = assay: Antibacterial activity against methicillin-resistant Staphylococcus aureus ATCC 33591 incubated for 18 to 24 hrs in presence of 2 mg/ml of pepsin by broth microdilution method; type: functional; conditions: time 18-24 hrs
Staphylococcus aureus [2] = assay: Antibacterial activity against methicillin-resistant Staphylococcus aureus ATCC 33591 assessed as fold change in MIC incubated for 18 to 24 hrs in presence of 10 percent FBS by broth microdilution method; type: functional; conditions: time 18-24 hrs
Staphylococcus aureus [3] = assay: Antibacterial activity against methicillin-resistant Staphylococcus aureus ATCC 33591 incubated for 18 to 24 hrs in presence of 1 mg/ml of trypsin by broth microdilution method; type: functional; conditions: time 18-24 hrs
Staphylococcus aureus [4] = assay: Antibacterial activity against Staphylococcus aureus ATCC 25923 incubated for 18 to 24 hrs by broth microdilution method; type: functional; conditions: time 18-24 hrs
Staphylococcus aureus [5] = assay: Antibacterial activity against methicillin-resistant Staphylococcus aureus ATCC 33591 incubated for 18 to 24 hrs in presence of 0.5 mg/ml of trypsin by broth microdilution method; type: functional; conditions: time 18-24 hrs
Staphylococcus aureus [6] = assay: Antibacterial activity against methicillin-resistant Staphylococcus aureus ATCC 33591 assessed as fold change in MIC incubated for 18 to 24 hrs in presence of 10 percent mouse serum by broth microdilution method; type: functional; conditions: time 18-24 hrs
Staphylococcus aureus [7] = assay: Antibacterial activity against methicillin-resistant Staphylococcus aureus ATCC 33591 incubated for 18 to 24 hrs in presence of 0.5 mg/ml of chymotrypsin by broth microdilution method; type: functional; conditions: time 18-24 hrs
Staphylococcus aureus [8] = assay: Antibacterial activity against methicillin-resistant Staphylococcus aureus ATCC 33591 incubated for 18 to 24 hrs in presence of 2 mg/ml of trypsin by broth microdilution method; type: functional; conditions: time 18-24 hrs
Staphylococcus aureus [9] = assay: Antibacterial activity against methicillin-resistant Staphylococcus aureus ATCC 33591 incubated for 18 to 24 hrs in presence of 1 mg/ml of pepsin by broth microdilution method; type: functional; conditions: time 18-24 hrs
Staphylococcus aureus [10] = assay: Antibacterial activity against methicillin-resistant Staphylococcus aureus ATCC 33591 incubated for 18 to 24 hrs in presence of 1 mg/ml of chymotrypsin by broth microdilution method; type: functional; conditions: time 18-24 hrs
Staphylococcus aureus [11] = assay: Antibacterial activity against methicillin-resistant Staphylococcus aureus ATCC 33591 assessed as fold change in MIC incubated for 18 to 24 hrs in presence of MgCl2 by broth microdilution method; type: functional; conditions: time 18-24 hrs
Staphylococcus aureus [12] = assay: Antibacterial activity against Staphylococcus aureus ATCC 29213 incubated for 18 to 24 hrs by broth microdilution method; type: functional; conditions: time 18-24 hrs
[13] = Hemolytic activity in mouse Red blood cells incubated for 1 hr by absorbance based analysis; type: toxicity, cell-based; conditions: erythrocyte
Staphylococcus aureus [14] = assay: Antibacterial activity against methicillin-resistant Staphylococcus aureus ATCC 33591 incubated for 18 to 24 hrs in presence of 0.5 mg/ml of pepsin by broth microdilution method; type: functional; conditions: time 18-24 hrs
[15] = test system: Staphylococcus epidermidis; assay: Antibacterial activity against Staphylococcus epidermidis ATCC 12228 incubated for 18 to 24 hrs by broth microdilution method; type: functional; conditions: time 18-24 hrs
Staphylococcus aureus [16] = assay: Antibacterial activity against methicillin-resistant Staphylococcus aureus ATCC 33591 incubated for 18 to 24 hrs in presence of 2 mg/ml of chymotrypsin by broth microdilution method; type: functional; conditions: time 18-24 hrs
Staphylococcus aureus [17] = assay: Antibacterial activity against methicillin-resistant Staphylococcus aureus ATCC 33591 incubated for 18 to 24 hrs by broth microdilution method; type: functional; conditions: time 18-24 hrs
[18] = Retention time of compound by RP-HPLC analysis; type: physicochemical
Staphylococcus aureus [19] = assay: Antibacterial activity against methicillin-resistant Staphylococcus aureus ATCC 33591 assessed as fold change in MIC incubated for 18 to 24 hrs in presence of NaCl by broth microdilution method; type: functional; conditions: time 18-24 hrs

| Compound | MIC (Enterococcus faecalis) | MIC (Staphylococcus aureus [1]) | fold change (FC) (Staphylococcus aureus [2]) | MIC (Staphylococcus aureus [3]) | MIC (Staphylococcus aureus [4]) | MIC (Staphylococcus aureus [5]) | fold change (FC) (Staphylococcus aureus [6]) | MIC (Staphylococcus aureus [7]) | MIC (Staphylococcus aureus [8]) | MIC (Staphylococcus aureus [9]) | MIC (Staphylococcus aureus [10]) | fold change (FC) (Staphylococcus aureus [11]) | MIC (Staphylococcus aureus [12]) | HC10 [13] | MIC (Staphylococcus aureus [14]) | MIC [15] | MIC (Staphylococcus aureus [16]) | MIC (Staphylococcus aureus [17]) | Retention_time [18] | fold change (FC) (Staphylococcus aureus [19]) |
| --- | --- | --- | --- | --- | --- | --- | --- | --- | --- | --- | --- | --- | --- | --- | --- | --- | --- | --- | --- | --- |
| CCCCCCCCCCCC(=O)N[C@H](CCCNC(=N)N)C(=O)N[C@@H](CCCNC(=N)N)C(=O)N[C@H](Cc1c[nH]c2ccccc12)C(=O)O | 16 µM (≈ 11.2 µg/mL) | 8 µM | 8 | 16 µM | 4 µM (≈ 2.8 µg/mL) | 8 µM | 4 | 8 µM | 32 µM | 8 µM | 8 µM | <3 | 4 µM (≈ 2.8 µg/mL) | 128 µM | 4 µM | 2 µM (≈ 1.4 µg/mL) | 8 µM | 4 µM (≈ 2.8 µg/mL) | 19.092 min | <3 |
| CCCCCCCCCCCC(=O)N[C@@H](CCCNC(=N)N)C(=O)N[C@H](CCCNC(=N)N)C(=O)N[C@H](Cc1c[nH]c2ccccc12)C(=O)O | 16 µM (≈ 11.2 µg/mL) | 16 µM | 8 | > 128 µM | 4 µM (≈ 2.8 µg/mL) | 128 µM | 4 | 8 µM | > 128 µM | 8 µM | 8 µM | <3 | 4 µM (≈ 2.8 µg/mL) | 64 µM | 4 µM | 2 µM (≈ 1.4 µg/mL) | 32 µM | 4 µM (≈ 2.8 µg/mL) | 19.303 min | <3 |
| CCCCCCCCCCCC(=O)N[C@@H](CCCNC(=N)N)C(=O)N[C@H](CCCNC(=N)N)C(=O)N[C@@H](Cc1c[nH]c2ccccc12)C(=O)O | 8 µM (≈ 5.59 µg/mL) | 64 µM | 8 | 32 µM | 4 µM (≈ 2.8 µg/mL) | 16 µM | 4 | 16 µM | 32 µM | 64 µM | 32 µM | <3 | 4 µM (≈ 2.8 µg/mL) | 128 µM | 64 µM | 2 µM (≈ 1.4 µg/mL) | 32 µM | 4 µM (≈ 2.8 µg/mL) | 18.997 min | <3 |
| CN[C@H](CC(C)C)C(=O)N[C@H]1C(=O)N[C@@H](CC(N)=O)C(=O)N[C@H]2C(=O)N[C@H]3C(=O)N[C@H](C(=O)N[C@H](C(=O)O)c4cc(O)cc(O)c4-c4cc3ccc4O)[C@H](O)c3ccc(c(Cl)c3)Oc3cc2cc(c3O[C@@H]2O[C@H](CO)[C@@H](O)[C@H](O)[C@H]2O[C@H]2C[C@](C)(N)[C@H](O)[C@H](C)O2)Oc2ccc(cc2Cl)[C@H]1O [VANCOMYCIN] | 2 µM (≈ 2.9 µg/mL) |  |  |  | ≤ 0.5 µM |  |  |  |  |  |  |  | ≤ 0.5 µM |  |  | 1 µM (≈ 1.45 µg/mL) |  | ≤ 0.5 µM |  |  |
| CCCCCCCCCCCC(=O)N[C@H](CCCNC(=N)N)C(=O)N[C@H](CCCNC(=N)N)C(=O)N[C@@H](Cc1c[nH]c2ccccc12)C(=O)O | 8 µM (≈ 5.59 µg/mL) | 32 µM | 8 | 32 µM | 4 µM (≈ 2.8 µg/mL) | 32 µM | 8 | 32 µM | 64 µM | 8 µM | 64 µM | <3 | 4 µM (≈ 2.8 µg/mL) | 128 µM | 4 µM | 2 µM (≈ 1.4 µg/mL) | 64 µM | 4 µM (≈ 2.8 µg/mL) | 18.527 min | <3 |
